# Values of other authors, collected in US6251886A, “Methods of using temozolomide in the treatment of cancers” (priority 1999, dated 2001).
# Entries after “also recorded” stand apart in the source; their conditions may differ. Read-outs that look alike come from different tables or passages of the source.
# Assays:
# [1] = tested on: D456-MG human glioma xenograft
# [2] = tested on: leptomeningeal medulloblastoma and pineoblastoma; conditions: i.t., Phase I
# [3] = clinical trials
# brain tumors = conditions: clinical trials, vs adjuvant BCNU
# [4] = known property
# human CNS xenografts = conditions: s.c. in athymic nude mice
# [5] = systemic temozolomide, rat
# murine tumors = conditions: mouse, in vivo
# [6] = oral therapy
# advanced melanoma [7] = conditions: Phase I, patients with advanced melanoma
# [8] = common, but tolerable
# [9] = not given; remark: listed apart in the source
# advanced melanoma [10] = conditions: Phase II, 60 patients with advanced melanoma
# [11] = systemic temozolomide, Rhesus monkeys
# [12] = Phase I, single-dose i.v. and oral
compound,measurement,setting,value
"O=NN(CCCl)C(=O)NCCCl [BCNU, 1,3-bis(2-chloroethyl)-1-nitrosourea]",resistance of D456 to BCNU,[1],resistant
N[C@@H](Cc1ccc(N(CCCl)CCCl)cc1)C(=O)O [melphalan],activity in patients,[2],activity has been seen in patients with leptomeningeal medulloblastoma and pineoblastoma
Cn1nnc2c(C(N)=O)ncn2c1=O [microcrystalline temozolomide],resistance of D456 to BCNU,[1],BCNU-resistant
same,sensitivity to BCNU,Mer- human MG xenograft,BCNU-sensitive
NC(=O)c1ncn2c(=O)n(CCCl)nnc12 [mitozolomide],thrombocytopenia,[3],severe and unpredictable thrombocytopenia
CNNCc1ccc(C(=O)NC(C)C)cc1 [procarbazine],activity against brain tumors,brain tumors,results comparable to adjuvant BCNU
"Cn1nnc2c(C(N)=O)ncn2c1=O [temozolomide, 3,4-dihydro-3-methyl-4-oxoimidazo-[5,1-d]-1,2,3,4-tetrazin-8-carboximide]",solubility (in words),[4],marked insolubility; also recorded: poor solubility
same,activity against human CNS xenografts,human CNS xenografts,activity of temozolomide against a series of human CNS xenografts
same,penetration into the CSF (CSF to plasma AUC zero to infinity ratio),[5],41% to 44
same,dose-limiting toxicity,"Phase I and II, five-day regimen",dose-limiting myelosuppression; also recorded: dose-limiting stem cell toxicity
same,anti-neoplastic activity,"Phase I and II, five-day regimen, including high-grade glioma",intriguing anti-neoplastic activity
same,antineoplastic activity,[12],trivial antineoplastic activity
same,dose-limiting toxicity,[12],dose-limiting myelosuppression
same,activity against murine tumors,murine tumors,activity against a spectrum of murine tumors
same,peak serum concentrations,[6],approximately 10 mg/L
same,clinical responses,advanced melanoma [7],17%
same,side effect,[8],nausea and vomiting
same,effective concentration in vitro,[9],0.1 mM
same,clinical response,advanced melanoma [10],21%
same,penetration into the CSF (CSF to plasma AUC zero to infinity ratio),[11],29.8%
